Measurements from PubChem BioAssay (NCI).
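Results reflect a 48-hour exposure of cells in 96-well plates to compound at five concentrations. The concentration for 50% growth inhibition is given as GI50. TGI: concentration producing complete growth inhibition.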

Columns and labels:
Experiment in all cases: NCI-60 cell line screen, 48 h
COLO 205 colon = tested on: COLO 205 colon
OVCAR-4 ovarian = tested on: OVCAR-4 ovarian
IGROV1 ovarian = tested on: IGROV1 ovarian
DU-145 prostate = tested on: DU-145 prostate
HCT-116 colon = tested on: HCT-116 colon
OVCAR-8 ovarian = tested on: OVCAR-8 ovarian
A498 renal = tested on: A498 renal
PC-3 prostate = tested on: PC-3 prostate
SK-OV-3 ovarian = tested on: SK-OV-3 ovarian
ACHN renal = tested on: ACHN renal
MOLT-4 leukemia = tested on: MOLT-4 leukemia
MALME-3M melanoma = tested on: MALME-3M melanoma
SR leukemia = tested on: SR leukemia
UACC-62 melanoma = tested on: UACC-62 melanoma
HCC-2998 colon = tested on: HCC-2998 colon
HT29 colon = tested on: HT29 colon
MCF7 breast = tested on: MCF7 breast
SNB-19 CNS = tested on: SNB-19 CNS
SN12C renal = tested on: SN12C renal
SK-MEL-28 melanoma = tested on: SK-MEL-28 melanoma
SF-539 CNS = tested on: SF-539 CNS
SF-268 CNS = tested on: SF-268 CNS
SK-MEL-2 melanoma = tested on: SK-MEL-2 melanoma
786-0 renal = tested on: 786-0 renal
NCI-H522 lung = tested on: NCI-H522 lung
KM12 colon = tested on: KM12 colon
HCT-15 colon = tested on: HCT-15 colon
MDA-MB-435 = tested on: MDA-MB-435
RXF 393 renal = tested on: RXF 393 renal
LOX IMVI melanoma = tested on: LOX IMVI melanoma
NCI-H460 lung = tested on: NCI-H460 lung
HS 578T breast = tested on: HS 578T breast
MDA-MB-231 breast = tested on: MDA-MB-231 breast
A549 NSCLC = tested on: A549 NSCLC
OVCAR-5 ovarian = tested on: OVCAR-5 ovarian
CAKI-1 renal = tested on: CAKI-1 renal
SNB-75 CNS = tested on: SNB-75 CNS
T-47D breast = tested on: T-47D breast
UACC-257 melanoma = tested on: UACC-257 melanoma
UO-31 renal = tested on: UO-31 renal
U251 CNS = tested on: U251 CNS
BT-549 breast = tested on: BT-549 breast
NCI-H23 lung = tested on: NCI-H23 lung
SF-295 CNS = tested on: SF-295 CNS
HL-60(TB) leukemia = tested on: HL-60(TB) leukemia
EKVX NSCLC = tested on: EKVX NSCLC
NCI/ADR-RES ovarian = tested on: NCI/ADR-RES ovarian
CCRF-CEM leukemia = tested on: CCRF-CEM leukemia
OVCAR-3 ovarian = tested on: OVCAR-3 ovarian
SW-620 colon = tested on: SW-620 colon
HOP-62 NSCLC = tested on: HOP-62 NSCLC
SK-MEL-5 melanoma = tested on: SK-MEL-5 melanoma
HOP-92 NSCLC = tested on: HOP-92 NSCLC
TK-10 renal = tested on: TK-10 renal
NCI-H226 lung = tested on: NCI-H226 lung
M14 melanoma = tested on: M14 melanoma

For `C/C(=C/CCC(C)[C@@H]1CC[C@]2(C)C3=C(CC[C@@]12C)[C@@]1(C)CCC(=O)C(C)(C)[C@@H]1CC3)C(=O)O` (some centres not stated), the GI50 (COLO 205 colon) was 1860 nM, the TGI (COLO 205 colon) was 3600 nM and the GI50 (OVCAR-4 ovarian) was 1270 nM. The TGI (OVCAR-4 ovarian) was 3020 nM, the GI50 (IGROV1 ovarian) was 1190 nM and the TGI (IGROV1 ovarian) was 2600 nM. The GI50 (DU-145 prostate) was 1200 nM, the TGI (DU-145 prostate) was 2560 nM and the GI50 (HCT-116 colon) was 858 nM. The TGI (HCT-116 colon) was 2300 nM, the GI50 (OVCAR-8 ovarian) was 1420 nM and the TGI (OVCAR-8 ovarian) was 3200 nM. The GI50 (A498 renal) was 975 nM, the TGI (A498 renal) was 2390 nM and the GI50 (PC-3 prostate) was 1120 nM. For the same compound, the TGI (PC-3 prostate) was 2510 nM, the GI50 (SK-OV-3 ovarian) was 1780 nM and the TGI (SK-OV-3 ovarian) was 3180 nM. The GI50 (ACHN renal) was 1290 nM, the TGI (ACHN renal) was 2730 nM and the GI50 (MOLT-4 leukemia) was 1460 nM. The TGI (MOLT-4 leukemia) was 3240 nM, the GI50 (MALME-3M melanoma) was 1660 nM and the TGI (MALME-3M melanoma) was 3500 nM. For the same compound, the GI50 (SR leukemia) was 1140 nM, the TGI (SR leukemia) was 2930 nM and the GI50 (UACC-62 melanoma) was 469 nM. For the same compound, the TGI (UACC-62 melanoma) was 1760 nM, the GI50 (HCC-2998 colon) was 1100 nM and the TGI (HCC-2998 colon) was 2440 nM. The GI50 (HT29 colon) was 1390 nM, the TGI (HT29 colon) was 3040 nM and the GI50 (MCF7 breast) was 1020 nM. It also gave a TGI (MCF7 breast) of 2870 nM, a GI50 (SNB-19 CNS) of 1170 nM and a TGI (SNB-19 CNS) of 2680 nM. For the same compound, the GI50 (SN12C renal) was 1210 nM, the TGI (SN12C renal) was 2890 nM and the GI50 (SK-MEL-28 melanoma) was 1420 nM. It also gave a TGI (SK-MEL-28 melanoma) of 2820 nM, a GI50 (SF-539 CNS) of 1370 nM and a TGI (SF-539 CNS) of 2930 nM. The GI50 (SF-268 CNS) was 1470 nM, the TGI (SF-268 CNS) was 3080 nM and the GI50 (SK-MEL-2 melanoma) was 1260 nM. It also gave a TGI (SK-MEL-2 melanoma) of 2890 nM, a GI50 (786-0 renal) of 1180 nM and a TGI (786-0 renal) of 2570 nM. The GI50 (NCI-H522 lung) was 728 nM, the TGI (NCI-H522 lung) was 2210 nM and the GI50 (KM12 colon) was 747 nM. For the same compound, the TGI (KM12 colon) was 2300 nM, the GI50 (HCT-15 colon) was 974 nM and the TGI (HCT-15 colon) was 3000 nM. The GI50 (MDA-MB-435) was 1250 nM, the TGI (MDA-MB-435) was 2740 nM and the GI50 (RXF 393 renal) was 1510 nM. It also gave a TGI (RXF 393 renal) of 3080 nM, a GI50 (LOX IMVI melanoma) of 961 nM and a TGI (LOX IMVI melanoma) of 2490 nM. For the same compound, the GI50 (NCI-H460 lung) was 1280 nM, the TGI (NCI-H460 lung) was 4020 nM and the GI50 (HS 578T breast) was 1450 nM. For the same compound, the TGI (HS 578T breast) was 3400 nM, the GI50 (MDA-MB-231 breast) was 1530 nM and the TGI (MDA-MB-231 breast) was 3150 nM. It also gave a GI50 (A549 NSCLC) of 387 nM, a TGI (A549 NSCLC) of 1840 nM and a GI50 (OVCAR-5 ovarian) of 1680 nM. The TGI (OVCAR-5 ovarian) was 3290 nM, the GI50 (CAKI-1 renal) was 753 nM and the TGI (CAKI-1 renal) was 2140 nM. The GI50 (SNB-75 CNS) was 1690 nM, the TGI (SNB-75 CNS) was 3220 nM and the GI50 (T-47D breast) was 1140 nM. The TGI (T-47D breast) was 3080 nM, the GI50 (UACC-257 melanoma) was 1560 nM and the TGI (UACC-257 melanoma) was 3060 nM. It also gave a GI50 (UO-31 renal) of 1080 nM, a TGI (UO-31 renal) of 2440 nM and a GI50 (U251 CNS) of 817 nM. The TGI (U251 CNS) was 2290 nM, the GI50 (BT-549 breast) was 1170 nM and the TGI (BT-549 breast) was 2450 nM. It also gave a GI50 (NCI-H23 lung) of 885 nM, a TGI (NCI-H23 lung) of 2370 nM and a GI50 (SF-295 CNS) of 506 nM. For the same compound, the TGI (SF-295 CNS) was 2020 nM, the GI50 (HL-60(TB) leukemia) was 855 nM and the TGI (HL-60(TB) leukemia) was 2320 nM. For the same compound, the GI50 (EKVX NSCLC) was 705 nM, the TGI (EKVX NSCLC) was 2190 nM and the GI50 (NCI/ADR-RES ovarian) was 1540 nM. It also gave a TGI (NCI/ADR-RES ovarian) of 3260 nM, a GI50 (CCRF-CEM leukemia) of 708 nM and a TGI (CCRF-CEM leukemia) of 2500 nM. It also gave a GI50 (OVCAR-3 ovarian) of 1410 nM, a TGI (OVCAR-3 ovarian) of 2790 nM and a GI50 (SW-620 colon) of 1390 nM. For the same compound, the TGI (SW-620 colon) was 3410 nM, the GI50 (HOP-62 NSCLC) was 1990 nM and the TGI (HOP-62 NSCLC) was 3570 nM. The GI50 (SK-MEL-5 melanoma) was 1070 nM, the TGI (SK-MEL-5 melanoma) was 2440 nM and the GI50 (HOP-92 NSCLC) was 783 nM. It also gave a TGI (HOP-92 NSCLC) of 2090 nM, a GI50 (TK-10 renal) of 1450 nM and a TGI (TK-10 renal) of 2830 nM. The GI50 (NCI-H226 lung) was 1460 nM, the TGI (NCI-H226 lung) was 4560 nM and the GI50 (M14 melanoma) was 1100 nM. It also gave a TGI (M14 melanoma) of 2640 nM.
